Patent publication US6498125B2, “Pyridine ketones useful as herbicides” (Syngenta Participations AG, priority 1998, dated 2002)

Experiments:
[1] = tested on: Monocotyledonous and dicotyledonous test plants; test: Example B2: post-emergence herbicidal action, 2 kg of AS/ha; format: in vivo; design: key: 1 = complete damage, 9 = no effect; conditions: 4- to 6-leaf stage, about 18 days, scale 1-9; for post-emergence action rating, Avena: test plant Avena; for post-emergence action rating, Setaria: test plant Setaria; for post-emergence action rating, Sinapis: test plant Sinapis; for post-emergence action rating, Solanum: test plant Solanum; for post-emergence action rating, Stellaria: test plant Stellaria
Procedure: Monocotyledonous and dicotyledonous test plants are grown in plastic pots with standard soil in a greenhouse and, in the 4- to 6-leaf stage, are sprayed with an aqueous suspension of the test substances of the formula 1, prepared from a 25% wettable powder (Example F3, b) according to WO 97134485) or with an emulsion of the test substances of the formula I, prepared from a 25% emulsion concentrate (Example F1, c) according to WO 97/34485), corresponding to a dosage of 2 kg of AS/ha (500 l of water/ha). The test plants are then grown further under optimum conditions in a greenhouse. After a test period of about 18 days, the test is evaluated with a nine-level scale of rating (1=complete damage, 9=no effect). Ratings of 1 to 4 (in particular 1 to 3) mean good to very good herbicidal action. In this test, the compounds of the formula I show strong herbicidal action.

[2] = tested on: Monocotyledonous and dicotyledonous test plants; test: Example B1: pre-emergence herbicidal action, 2 kg of AS/ha; format: in vivo; conditions: 3 weeks, scale 1-9; for pre-emergence action rating, Avena: test plant Avena; for pre-emergence action rating, Cyperus: test plant Cyperus; for pre-emergence action rating, Setaria: test plant Setaria; for pre-emergence action rating, Sinapis: test plant Sinapis; for pre-emergence action rating, Solanum: test plant Solanum; for pre-emergence action rating, Stellaria: test plant Stellaria
Procedure: Monocotyledonous and dicotyledonous test plants are sown in standard soil in plastic pots. Immediately after sowing, the test substances are sprayed on (500 l of water/ha) as an aqueous suspension (prepared from a 25% wettable powder (Example F3, b) according to WO 97/34485) or emulsion (prepared from a 25% emulsion concentrate (Example F1, c)), corresponding to a dosage of 2 kg of AS/ha. The test plants are then grown under optimum conditions in a greenhouse. After a test period of 3 weeks, the test is evaluated with a nine-level scale of ratings (1=complete damage, 9=no effect). Ratings of 1 to 4 (in particular 1 to 3) mean good to very good herbicidal action.

Structure (SMILES) | melting point [°C] | post-emergence action rating, Avena [1] | post-emergence action rating, Setaria [1] | post-emergence action rating, Sinapis [1] | post-emergence action rating, Solanum [1] | post-emergence action rating, Stellaria [1] | pre-emergence action rating, Avena [2] | pre-emergence action rating, Cyperus [2] | pre-emergence action rating, Setaria [2] | pre-emergence action rating, Sinapis [2] | pre-emergence action rating, Solanum [2] | pre-emergence action rating, Stellaria [2]
O=C(C1=C(O)C2CCC(C2)C1=O)c1ncc(C(F)(F)F)cc1Cl (centres unmarked) [Compound 2.044] | 105 to 106 | – | – | – | – | – | – | – | – | – | – | –
CSc1nc(C(=O)C2=C(O)C3CCC(C3)C2=O)ccc1C(F)(F)F (centres unmarked) [Compound 2.03] | 107 to 110 | – | – | – | – | – | – | – | – | – | – | –
Cc1nc(C(F)(F)F)ccc1C(=O)C1=C(Sc2ccc(Cl)cc2)C2CCC(C2)C1=O (centres unmarked) [Compound 1.412, 4-(4-chlorophenylsulfanyl)-3-(2-methyl-6-trifluoromethylpyridine-3-carbonyl)bicyclo[3.2.1]oct-3-en-2-one] | 130 to 131 | – | – | – | – | – | – | – | – | – | – | –
Cc1nc(C(F)(F)F)ccc1C(=O)C1=C(N)C2CCC(C2)C1=O (centres unmarked) [Compound 1.399, 4-amino-3-(2-methyl-6-trifluoromethylpyridine-3-carbonyl)bicyclo[3.2.1]oct-3en-2-one] | 262 to 263 | – | – | – | – | – | – | – | – | – | – | –
COc1nc(C(=O)C2=C(O)C3CCC(C3)C2=O)ccc1C(F)(F)F (centres unmarked) [Compound 2.038] | 111 to 113 | – | – | – | – | – | – | – | – | – | – | –
CSc1nccc(C(=O)C2=C(O)C3CCC(C3)C2=O)c1C#N (centres unmarked) [Compound 3.055] | 108 to 110 | – | – | – | – | – | – | – | – | – | – | –
O=C(C1=C(O)C2CCC(C2)C1=O)c1ccnc(C(F)(F)F)c1 (centres unmarked) [Compound 3.001] | 95 to 97 | – | – | – | – | – | – | – | – | – | – | –
Cc1nc(C(F)(F)F)ccc1C(=O)C1=C(S(=O)(=O)c2ccc(Cl)cc2)C2CCC(C2)C1=O (centres unmarked) [Compound 1.414, 4-(4-chlorobenzenesulfonyl)-3-(2-methyl-6-trifluoromethylpyridine-3-carbonyl)bicyclo[3.2.1]oct-3-en-2-one] | 166 to 167 | – | – | – | – | – | – | – | – | – | – | –
C=CC(=O)OC1=C(C(=O)c2ccc(C(F)(F)F)nc2C)C(=O)C2CCC1C2 (centres unmarked) [Compound 1.405] | – | 2 | 2 | 1 | 2 | 2 | 2 | 1 | 1 | 1 | 1 | 2
CC(C)c1nc(C(F)(F)F)ccc1C(=O)C1=C(O)C2CCC(C2)C1=O (centres unmarked) [Compound 1.011] | – | 2 | 2 | 2 | 2 | 2 | 2 | 1 | 1 | 1 | 1 | 1
Cc1nc(C(F)(F)C(F)(F)C(F)(F)C(F)(F)F)ccc1C(=O)C1=C(O)C2CCC(C2)C1=O (centres unmarked) [Compound 1.411] | – | 2 | 2 | 1 | 2 | 2 | 3 | 2 | 1 | 2 | 1 | 2
Cc1cc(C(=O)C2=C(O)C3CCC(C3)C2=O)c(C)nc1C(F)(F)F (centres unmarked) [Compound 1.313] | – | 2 | 2 | 1 | 2 | 2 | 3 | 1 | 2 | 1 | 1 | 2
Cc1nc(C(F)(F)F)ccc1C(=O)C1=C(OC(=O)C(C)(C)C)C2CCC(C2)C1=O (centres unmarked) [Compound 1.4] | – | 2 | 2 | 1 | 2 | 2 | 2 | 1 | 1 | 2 | 1 | 2
Cc1c(C(=O)C2=C(O)C3CCC(C3)C2=O)ccc(C(F)(F)F)[n+]1[O-] (centres unmarked) [Compound 1.06] | – | 2 | 1 | 1 | 1 | 2 | 2 | 1 | 1 | 2 | 1 | 1
CC1=CC(C)(C)C(O)=C(C(=O)c2ccc(C(F)(F)F)nc2C)C1=O [Compound 5.008] | – | 2 | 3 | 1 | 1 | 2 | 2 | 1 | 1 | 2 | 1 | 2
Cc1nc(C(F)(F)F)ccc1C(=O)C1=C(O)C2CCC(C2)C1=O (centres unmarked) [Compound 1.009, 4-hydroxy-3-(2-methyl-6-trifluoromethylpyridine-3-carbonyl)bicyclo[3.2.1]oct-3-en-2-one] | – | 1 | 1 | 1 | 1 | 2 | 2 | 1 | 1 | 2 | 1 | 2
CC(=O)OC1=C(C(=O)c2ccc(C(F)(F)F)nc2C)C(=O)C2CCC1C2 (centres unmarked) [Compound 1.401] | – | 2 | 2 | 2 | 2 | 2 | 2 | 1 | 1 | 2 | 1 | 2
Cc1nc(C(F)(F)F)ccc1C(=O)C1=C(Sc2ccccc2)C2CCC(C2)C1=O (centres unmarked) [Compound 1.381] | – | 2 | 2 | 2 | 2 | 2 | 4 | 1 | 2 | 2 | 1 | 1

The next lines start with results.

melting point [°C] | Structure (SMILES) | post-emergence action rating, Avena [1] | post-emergence action rating, Setaria [1] | post-emergence action rating, Sinapis [1] | post-emergence action rating, Solanum [1] | post-emergence action rating, Stellaria [1] | pre-emergence action rating, Avena [2] | pre-emergence action rating, Cyperus [2] | pre-emergence action rating, Setaria [2] | pre-emergence action rating, Sinapis [2] | pre-emergence action rating, Solanum [2] | pre-emergence action rating, Stellaria [2]
176 to 177 | CCC(=O)NC1CC(=O)C(C(=O)c2ccc(C(F)(F)F)nc2C)=C(O)C1 (centres unmarked) [Compound 6.006] | 2 | 5 | 2 | 2 | 2 | – | – | – | – | – | –
112 to 113 | Cc1nc(C(F)(F)F)ccc1-c1onc([S+](C)[O-])c1C(=O)C1CC1 (centres unmarked) [Compound 9.009, cyclopropyl-[3-methanesulfinyl-5-(2-methyl-6-trifluoromethylpyridin-3yl)isoxazol4-yl]methanone] | – | – | – | – | – | – | – | – | – | – | –
186 to 187 | Cc1nc(C(F)(F)F)ccc1C(=O)C1=C(O)CC(NC(=O)C(C)C)CC1=O (centres unmarked) [Compound 6.041] | – | – | – | – | – | – | – | – | – | – | –
163 to 164 | Cc1nc(C(F)(F)F)ccc1C(=O)C1=C(O)CC(NC(=O)NC(C)(C)C)CC1=O (centres unmarked) [Compound 6.111] | – | – | – | – | – | – | – | – | – | – | –
161 to 162 | Cc1nc(C(F)(F)F)ccc1C(=O)C1=C(O)C(C)(C)C=C([S+](C)[O-])C1=O (centres unmarked) [Compound 5.083] | – | – | – | – | – | – | – | – | – | – | –
195 to 196 | Cc1nc(C(F)(F)F)ccc1C(=O)C1=C(O)CC(NC(=O)Nc2ccccc2)CC1=O (centres unmarked) [Compound 6.076] | – | – | – | – | – | – | – | – | – | – | –
96 to 97 | Cc1nc(C(F)(F)F)ccc1C(=O)c1c([S+](C)[O-])noc1C1CC1 (centres unmarked) [Compound 8.009, (5-cyclopropyl-3-methylsulfinylisoxazol-4-yl)-(2-methyl-6-trifluoromethylpyridin-3-yl)methanone] | – | – | – | – | – | – | – | – | – | – | –
215 to 216 | Cc1nc(C(F)(F)F)ccc1C(=O)C1=C(O)C(C)(C)C=C(S(C)(=O)=O)C1=O [Compound 5.084] | – | – | – | – | – | – | – | – | – | – | –
